Assay results as given in US20210253557A1, “SUBSTITUTED TRIAZOLE DERIVATIVES AND USES THEREOF” (Bayer Pharma Aktiengesellschaft, priority 2017, published 2021).
Counter-ions that a name gives are not always drawn.

Experiments:
[1] = biological target: T1, human V1a receptor (Homo sapiens, UniProt P37288); experiment: Cellular in vitro assay for determining vasopressin receptor activity (V1a, aequorin luminescence); type: cell-based; conditions: for IC50: CHO cell line transfected with the human V1a receptor, [Arg8]-vasopressin at EC50 concentration, read-out: IC50 hV1a; for ratio IC50 hV2/hV1a: selectivity ratio of IC50 hV2 to IC50 hV1a
T1 construct: expressed in transfected cells; host or cells: CHO K1 (ATCC), also stably transfected with a modified aequorin

[2] = biological target: T2, human V2 receptor (Homo sapiens, UniProt P30518); experiment: Cellular in vitro assay for determining vasopressin receptor activity (V2, CRE-luciferase); type: cell-based; conditions: CHO cell line transfected with the human V2 receptor; [Arg8]-vasopressin at EC50 concentration; read-out: IC50 hV2
T2 construct: expressed in transfected cells; host or cells: CHO K1 (ATCC) expressing firefly luciferase under a CRE-responsive promoter
How it was run: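 Antagonism was measured as inhibition of a 3-h, EC50-level [Arg8]-vasopressin stimulation, with compounds tested at several concentrations, yielding IC50 values. The read-out was cAMP-driven CRE-luciferase luminescence after lysis, in recombinant CHO K1 cells carrying human V2 receptor. Cells were seeded in 2% FCS DMEM/F12 one day earlier.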

T2 sequence (P30518 whole entry): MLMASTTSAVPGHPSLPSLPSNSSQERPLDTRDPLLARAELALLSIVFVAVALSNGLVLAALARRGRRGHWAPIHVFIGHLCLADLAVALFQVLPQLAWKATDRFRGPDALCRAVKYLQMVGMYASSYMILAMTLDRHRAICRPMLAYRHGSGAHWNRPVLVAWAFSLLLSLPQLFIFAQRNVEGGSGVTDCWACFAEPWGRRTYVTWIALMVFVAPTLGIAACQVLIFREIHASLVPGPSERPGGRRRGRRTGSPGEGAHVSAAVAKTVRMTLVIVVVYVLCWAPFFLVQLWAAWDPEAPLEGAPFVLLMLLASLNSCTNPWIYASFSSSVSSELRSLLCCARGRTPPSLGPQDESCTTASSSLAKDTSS
T1 sequence (P37288 whole entry): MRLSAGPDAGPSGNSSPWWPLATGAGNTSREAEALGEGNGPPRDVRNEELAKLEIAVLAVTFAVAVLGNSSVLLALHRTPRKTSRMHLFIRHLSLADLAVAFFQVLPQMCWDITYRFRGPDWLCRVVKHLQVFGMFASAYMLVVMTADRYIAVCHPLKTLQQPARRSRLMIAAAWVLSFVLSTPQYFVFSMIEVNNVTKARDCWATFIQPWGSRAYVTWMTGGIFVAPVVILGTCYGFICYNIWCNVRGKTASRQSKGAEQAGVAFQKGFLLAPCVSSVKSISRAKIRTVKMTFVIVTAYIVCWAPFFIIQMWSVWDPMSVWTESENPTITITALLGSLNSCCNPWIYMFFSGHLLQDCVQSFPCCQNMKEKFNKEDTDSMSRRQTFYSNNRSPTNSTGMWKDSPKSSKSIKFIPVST

Compound | IC50 [1] | ratio IC50 hV2/hV1a [1] | IC50 [2]
CN1C(=O)CCC1c1nc(Cn2nc(-c3ccc(Cl)cc3)n(C[C@H](O)C(F)(F)F)c2=O)nn1CCC(F)(F)F (mixture of isomers) [Example 130, 5-(4-Chlorophenyl)-2-({5-[1-methyl-5-oxopyrrolidin-2-yl]-1-(3,3,3-trifluoropropyl)-1H-1,2,4-triazol-3-yl}methyl)-4-[(2S)-3,3,3-trifluoro-2-hydroxypropyl]-2,4-dihydro-3H-1,2,4-triazol-3-one] | 21 nM | 127.9 | 2680 nM
C[C@H](OC(N)=O)c1nc(Cn2nc(-c3ccc(Cl)cc3)n(C[C@H](O)C(F)(F)F)c2=O)nn1-c1cccc(Cl)c1 [Example 35, (1S)-1-[1-(3-Chlorophenyl)-3-({3-(4-chlorophenyl)-5-oxo-4-[(2S)-3,3,3-trifluoro-2-hydroxypropyl]-4,5-dihydro-1H-1,2,4-triazol-1-yl}methyl)-1H-1,2,4-triazol-5-yl]ethyl Carbamate] | 41.4 nM | – | 1.99 nM
CC(=O)NC(CO)c1nc(Cn2nc(-c3ccc(Cl)cc3)n(C[C@H](O)C(F)(F)F)c2=O)nn1-c1ncccc1OC(F)(F)F (single isomer, unassigned) [Example 121] | 147 nM | 18.8 | 2780 nM
C[C@@H](OC(N)=O)c1nc(Cn2nc(-c3ccc(Cl)cc3)n(C[C@H](O)C(F)(F)F)c2=O)nn1-c1ccccn1 [Example 11, (1R)-1-[3-({3-(4-Chlorophenyl)-5-oxo-4-[(2S)-3,3,3-trifluoro-2-hydroxypropyl]-4,5-dihydro-1H-1,2,4-triazol-1-yl}methyl)-1-(pyridin-2-yl)-1H-1,2,4-triazol-5-yl]ethyl Carbamate] | 115 nM | 2.0 | 225 nM

Molecules with a lower IC50 [1], results first:

IC50 [1] | ratio IC50 hV2/hV1a [1] | IC50 [2] | Compound
0.81 nM | 25.6 | 20.7 nM | C[C@@H](OC(N)=O)c1nc(Cn2nc(-c3ccc(Cl)cc3)n(C[C@H](O)C(F)(F)F)c2=O)nn1-c1ccccc1OC(F)F [Example 6, (1R)-1-{3-({3-(4-Chlorophenyl)-5-oxo-4-[(2S)-3,3,3-trifluoro-2-hydroxypropyl]-4,5-dihydro-1H-1,2,4-triazol-1-yl}methyl)-1-[2-(difluoromethoxy)phenyl]-1H-1,2,4-triazol-5-yl}ethyl Carbamate]
1.6 nM | 4.4 | 7.05 nM | C[C@H](OC(N)=O)c1nc(Cn2nc(-c3ccc(Cl)cc3)n(C[C@H](O)C(F)(F)F)c2=O)nn1-c1ccccc1OC(F)F [Example 5, (1S)-1-{3-({3-(4-Chlorophenyl)-5-oxo-4-[(2S)-3,3,3-trifluoro-2-hydroxypropyl]-4,5-dihydro-1H-1,2,4-triazol-1-yl}methyl)-1-[2-(difluoromethoxy)phenyl]-1H-1,2,4-triazol-5-yl}ethyl Carbamate]
1.25 nM | 6.4 | 7.95 nM | NC(CO)c1nc(Cn2nc(-c3ccc(Cl)cc3)n(C[C@H](O)C(F)(F)F)c2=O)nn1-c1ccccc1Cl (mixture of isomers) [Example 81, 2-({5-[1-Amino-2-hydroxyethyl]-1-(2-chlorophenyl)-1H-1,2,4-triazol-3-yl}methyl)-5-(4-chlorophenyl)-4-[(2S)-3,3,3-trifluoro-2-hydroxypropyl]-2,4-dihydro-3H-1,2,4-triazol-3-one hydrochloride]
1.95 nM | 41.3 | 80.5 nM | CC(C)(C)OCC(NS(C)(=O)=O)c1nc(Cn2nc(-c3ccc(Cl)cc3)n(C[C@H](O)C(F)(F)F)c2=O)nn1-c1ccccc1Cl (single isomer, unassigned) [Example 83]
18 nM | 1.4 | 26 nM | CC(N)c1nc(Cn2nc(-c3ccc(Cl)cc3)n(C[C@H](O)C(F)(F)F)c2=O)nn1-c1cccc(F)c1 (single isomer, unassigned) [Example 55]
